Measured values published in patent US20200131144A1, “AMINE OR (THIO)AMIDE CONTAINING LXR MODULATORS” (Phenex-FXR GmbH, priority 2017, published 2020).

Columns and labels:
LXRα full length (FL) = biological target: T1, LXRα full length (FL) (Homo sapiens, UniProt Q13133); assay: LXR Gal4 reporter transient transfection assay, mammalian two-hybrid, FL-M2H Gal4α; format: cell-based; settings: HEK293 cells; inverse agonist unless *
T1 construct: the full length (FL) proteins of LXRα (amino acids 1-447); NP005684; expressed in transfected cells; host or cells: HEK293
T1 sequence (Q13133 1-447): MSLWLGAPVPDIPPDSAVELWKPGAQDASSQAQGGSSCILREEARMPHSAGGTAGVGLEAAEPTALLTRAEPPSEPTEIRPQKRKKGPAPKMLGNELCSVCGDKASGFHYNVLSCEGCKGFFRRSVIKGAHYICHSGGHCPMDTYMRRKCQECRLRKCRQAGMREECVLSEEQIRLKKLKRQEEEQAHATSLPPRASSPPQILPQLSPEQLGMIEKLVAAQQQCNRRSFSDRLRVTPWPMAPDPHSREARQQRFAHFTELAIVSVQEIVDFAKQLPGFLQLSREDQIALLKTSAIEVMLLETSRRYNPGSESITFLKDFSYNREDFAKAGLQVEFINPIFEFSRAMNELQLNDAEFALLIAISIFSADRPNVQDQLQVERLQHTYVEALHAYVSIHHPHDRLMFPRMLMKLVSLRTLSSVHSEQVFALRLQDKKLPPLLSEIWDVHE
Experimental: (§1) The tested compounds were usually dissolved, tested and stored as 20 mM stock solutions in DMSO. Since sulfonyl acetic acid derivatives tend to decarboxylate under these conditions, these stock solutions were prepared, tested and stored as 20 mM DMSO stock solutions containing 100 mM trifluoroacetic acid (5 equivalents). Sulfonyl acetic acid derivatives are shelf stable as solid at rt for long time as reported by Griesbrecht et al. (Synlett 2010:374) or Faucher et al. (J. Med. Chem. 2004; 47:18).
(§2) LXR Gal4 Reporter Transient Transfection Assays
(§3) LXRα and LXRβ activity status was determined via detection of interaction with coactivator and corepressor proteins in mammalian two-hybrid experiments (M2H). For this, via transient transfection the full length (FL) proteins of LXRα (amino acids 1-447; NP005684; SEQ ID NO:1) or LXRβ-(amino acids 1-461; NP009052; SEQ ID NO:2) or the ligand-binding domains (LBD) of LXRα (amino acids 155-447 SEQ ID NO:3) or LXR (amino acids 156-461; SEQ ID NO:4) were expressed from pCMV-AD (Stratagene) as fusions to the transcriptional activation domain of NFkB. As cofactors, domains of either the steroid receptor coactivator 1 (SRC1; amino acids 552-887; SEQ ID NO:5) or of the corepressor NCoR (amino acids 1906-2312; NP006302; SEQ ID NO:6) were expressed as fusions to the DNA binding domain of the yeast transcription factor GAL4 (from pCMV-BD; Stratagene). Interaction was monitored via activation of a coexpressed Firefly Luciferase Reporter gene under control of a promoter containing repetitive GAL4 response elements (vector pFRLuc; Stratagene). Transfection efficiency was controlled via cotransfection of constitutively active pRL-CMV Renilla reniformis luciferase reporter (Promega). HEK293 cells were grown in minimum essential medium (MEM) with 2 mM L-glutamine and Earle's balanced salt solution supplemented with 8.3% fetal bovine serum, 0.1 mM non-essential amino acids, 1 mM sodium pyruvate, at 37° C. in 5% CO2. 3.5×10^4 cells/well were plated in 96-well cell culture plates in growth medium supplemented with 8.3% fetal bovine serum for 16-20 h to—90% confluency. For transfection, medium was taken off and LXR and cofactor expressing plasmids as well as the reporter plasmids are added in 30 μL OPTIMEM/well including polyethylene-imine (PEI) as vehicle. Typical amounts of plasmids transfected/well: pCMV-AD-LXR (5 ng), pCMV-BD-cofactor (5 ng), pFR-Luc (100 ng), pRL-CMV (0.5 ng). Compound stocks were prepared in DMSO, prediluted in MEM to a total volume of 120 μL, and added 4 h after addition of the transfection mixture (final vehicle concentration not exceeding 0.2%). Cells were incubated for additional 16 h, lysed for 10 min in 1×Passive Lysis Buffer (Promega) and Firefly and Renilla luciferase activities were measured sequentially in the same cell extract using buffers containing D-luciferine and coelenterazine, respectively. Measurements of luminescence were done in a BMG-luminometer.

[1] = biological target: T2, GST-LXRβ ligand-binding domain (Homo sapiens, UniProt P55055, INS174Q); assay: TR-FRETβ activity assay (NCoA3 coactivator peptide recruitment); format: biochemical; settings: 1 μM 24(S)-25-epoxycholesterol as prestimulating agonist; inverse agonist unless *
T2 construct: amino acids 156-461; NP009052; made in house; host or cells: E. coli
T2 sequence (P55055 with tags, fused parts or gaps INS174Q limits assumed): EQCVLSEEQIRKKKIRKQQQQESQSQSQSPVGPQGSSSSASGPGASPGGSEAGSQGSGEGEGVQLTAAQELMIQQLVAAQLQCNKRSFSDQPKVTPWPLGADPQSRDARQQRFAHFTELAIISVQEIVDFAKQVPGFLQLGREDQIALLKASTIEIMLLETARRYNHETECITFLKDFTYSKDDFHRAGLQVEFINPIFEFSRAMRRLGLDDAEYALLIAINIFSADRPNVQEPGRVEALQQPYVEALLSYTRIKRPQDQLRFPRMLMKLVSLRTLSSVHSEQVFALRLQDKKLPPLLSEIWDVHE
Experimental: The tested compounds were usually dissolved, tested and stored as 20 mM stock solutions in DMSO. […] Sulfonyl acetic acid derivatives are shelf stable as solid at rt for long time as reported by Griesbrecht et al. (Synlett 2010:374) or Faucher et al. (J. Med. Chem. 2004; 47:18). TR-FRETβ Activity Assay Recombinant GST-LXRβ ligand-binding domain (LBD; amino acids 156-461; NP009052; SEQ ID NO:4) was expressed in E. coli and purified via gluthatione-sepharose affinity chromatography. N-terminally biotinylated NCoA3 coactivator peptide (SEQ ID NO:7) was chemically synthesized (Eurogentec). […] Finally, a detection mix was added containing anti GST-Tb cryptate (CisBio; 610SAXLB) and Streptavidin-XL665 (CisBio; 610SAXLB) as fluorescent donor and acceptor, respectively, as well as the coactivator peptide and LXRβ-LBD protein (SEQ ID NO:4). The reaction was mixed thoroughly, equilibrated for 1 h at 4° C. and vicinity of LXRβ and coactivator peptide was detected by measurement of fluorescence in a VictorX4 multiplate reader (PerkinElmer Life Science) using 340 nm as excitation and 615 and 665 nm as emission wavelengths. Assays were performed in triplicates. Final Assay Concentrations of Components: 240 mM KCl, 1 μg/μL BSA, 0.002% Triton-X-100, 125 pg/μL anti GST-Tb cryptate, 2.5 ng/μL Streptavidin-XL665, coactivator peptide (400 nM), LXRP protein ([…], i.e. 76 nM).

LXRβ full length (FL) = biological target: T3, LXRβ full length (FL) (Homo sapiens, UniProt P55055, INS174Q); assay: LXR Gal4 reporter transient transfection assay, mammalian two-hybrid, FL-M2H Gal4β; format: cell-based; settings: HEK293 cells; inverse agonist unless *
T3 construct: the full length (FL) proteins of LXRα (amino acids 1-447); NP005684; NP009052; expressed in transfected cells; host or cells: HEK293
T3 sequence (P55055 with tags, fused parts or gaps INS174Q): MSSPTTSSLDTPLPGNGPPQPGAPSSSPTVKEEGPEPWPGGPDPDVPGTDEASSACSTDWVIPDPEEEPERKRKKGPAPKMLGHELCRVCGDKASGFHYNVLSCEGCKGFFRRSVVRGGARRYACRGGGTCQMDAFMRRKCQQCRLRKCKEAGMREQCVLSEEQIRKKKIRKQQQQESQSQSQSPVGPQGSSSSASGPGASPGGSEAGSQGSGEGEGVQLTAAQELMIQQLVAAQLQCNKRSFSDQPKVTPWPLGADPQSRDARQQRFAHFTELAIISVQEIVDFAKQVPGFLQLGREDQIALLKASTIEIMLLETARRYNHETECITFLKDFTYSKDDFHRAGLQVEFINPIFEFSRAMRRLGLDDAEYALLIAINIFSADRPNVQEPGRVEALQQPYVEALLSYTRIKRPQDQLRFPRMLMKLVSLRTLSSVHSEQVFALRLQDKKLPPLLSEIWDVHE
Experimental: as §1, §2, §3

With Cc1cc(C)c(CN(Cc2ccc(-c3cccc(S(=O)(=O)CC(=O)N(C)O)c3)cc2)Cc2ccc(C(F)(F)F)o2)c(C)c1 [5/2] the EC50 (LXRα full length (FL)) was 100 to 1000 nM, the EC50 [1] was less than 100 nM and the EC50 (LXRβ full length (FL)) was less than 100 nM.

Compound Cc1ccc2ccccc2c1C(=O)N(Cc1ccc(-c2cccc(S(=O)(=O)CC(=O)NS(C)(=O)=O)c2)cc1)Cc1ccc(C(F)(F)F)o1 [5/4] has an EC50 (LXRα full length (FL)) of 1000 to 10000 nM, an EC50 [1] of 100 to 1000 nM and an EC50 (LXRβ full length (FL)) of 1000 to 10000 nM.

Cc1cc(C)c(CCN(Cc2ccc(-c3cccc(S(=O)(=O)CC(=O)O)c3)cc2)Cc2ccc(C(F)(F)F)o2)c(C)c1 [7/8] gave an EC50 [1] greater than 10000 nM and an EC50 (LXRβ full length (FL)) of 1000 to 10000 nM.

O=C(O)CS(=O)(=O)c1cccc(-c2ccc(CN(Cc3ccccc3)Cc3ccc(C(F)(F)F)o3)cc2)c1 [7/11] was tested, and the EC50 (LXRβ full length (FL)) was 1000 to 10000 nM.

COc1cc(-c2cccc(S(=O)(=O)CC(=O)O)c2)ccc1CN(Cc1ccc(C(F)(F)F)o1)Cc1c(C)cc(C)cc1C [15/2] showed an EC50 [1] of 1000 to 10000 nM and an EC50 (LXRβ full length (FL)) of 1000 to 10000 nM.

Work on Cc1cc(C)c(CN(Cc2ccc(C(F)(F)F)o2)Cc2sc(-c3cccc(S(=O)(=O)CC(=O)O)c3)cc2Cl)c(C)c1 [15/4] yielded an EC50 [1] greater than 10000 nM and an EC50 (LXRβ full length (FL)) of 100 to 1000 nM.

Work on COc1cc(-c2cc(F)c(CO)c(S(=O)(=O)CC(=O)O)c2)cnc1CN(Cc1ccc(C(F)(F)F)o1)Cc1c(C)ccc2ccccc12 [22/3] yielded an EC50 (LXRα full length (FL)) of 1000 to 10000 nM and an EC50 (LXRβ full length (FL)) of 100 to 1000 nM.

Work on Cc1nc(C)c(CN(Cc2ccc(-c3cc(F)c(CO)c(S(=O)(=O)CC(=O)O)c3)cc2)Cc2ccc(C(F)(F)F)o2)c(C)n1 [22/6] yielded an EC50 [1] of 1000 to 10000 nM and an EC50 (LXRβ full length (FL)) of 1000 to 10000 nM.

In the case of Cc1ccc2ccccc2c1C(=O)N(Cc1ccc(-c2cccc(C(C)(C)C(=O)O)c2)cc1)Cc1ccc(C(=O)O)o1 [27/29], the EC50 (LXRα full length (FL)) is reported as 1000 to 10000 nM and the EC50 (LXRβ full length (FL)) is reported as 1000 to 10000 nM.

Compound O=C(O)CS(=O)(=O)c1cccc(-c2ccc(CN(Cc3ccc(C(F)(F)F)o3)C3CCc4cccc5cccc3c45)cc2)c1 (centres unmarked) [27/40] has an EC50 [1] greater than 10000 nM and an EC50 (LXRβ full length (FL)) of 1000 to 10000 nM.

Cc1cc(C)c(CN(Cc2ccc(-c3cccc(S(=O)(=O)CC(=O)O)c3)cc2)C(=O)c2ccc(C(F)(F)F)o2)c(C)c1 [27/57] showed an EC50 [1] greater than 10000 nM.

In the case of Cc1ccc2ccccc2c1C(=O)N(Cc1ccc(C(F)(F)F)o1)Cc1ccc(-c2cncc(C(C)(C)C(=O)O)c2)cc1C(F)F [27/63], the EC50 [1] is reported as 100 to 1000 nM.

With CC1CCc2ccccc2N1C(=O)N(Cc1ccc(-c2cccc(C(C)(C)C(=O)O)c2)cc1)Cc1ccc(C(F)(F)F)o1 (centres unmarked) [27/96] the EC50 (LXRα full length (FL)) was less than 100 nM and the EC50 (LXRβ full length (FL)) was less than 100 nM.

COc1ccc2nc(C)c(C)c(C(=O)N(Cc3ccc(-c4cccc(C(C)(C)C(=O)O)c4)cc3)Cc3ccc(C(F)(F)F)o3)c2n1 [27/134] gave an EC50 (LXRα full length (FL)) of less than 100 nM and an EC50 (LXRβ full length (FL)) of less than 100 nM.

Work on Cc1cc(C)c(CN(Cc2ccc(-c3cccc(S(=O)(=O)CC(=O)NS(=O)(=O)N(C)C)c3)cc2)Cc2ccc(C(F)(F)F)o2)c(C)c1 [Example 2/1] yielded an EC50 [1] greater than 10000 nM.

Work on Cc1cc(C)c(CC(=O)N(Cc2ccc(-c3cccc(S(=O)(=O)CC(=O)O)c3)cc2)Cc2ccc(C(F)(F)F)o2)c(C)c1 [Example 9/1] yielded an EC50 (LXRβ full length (FL)) of 1000 to 10000 nM.

With Cc1cc(C)c(CN(Cc2ccc(-c3ccc(CO)c(S(=O)(=O)CC(=O)O)c3)cc2)Cc2ccc(C(F)(F)F)o2)c(C)c1 [Example 12, 2-((4-(Hydroxvmethyl)-4′-((((5-(trifluoromethyl)furan-2-yl)methyl)(2,4,6-trimethyl-benzyl)amino)methyl)-[1,1′-biphenyl]-3-yl)sulfonyl)acetic acid] the EC50 [1] was 1000 to 10000 nM.

Cc1ccc2ccccc2c1C(=O)N(Cc1ccc(-c2cccc(S(=O)(=O)CC(=O)O)c2)cc1)Cc1ccc(C(N)=O)o1 [Example 16, 2-((4′-((N-((5-Carbamoylfuran-2-yl)methyl)-2-methyl-1-naphthamido)methyl)-[1,1′-biphenyl]-3-yl)sulfonyl)acetic acid] showed an EC50 (LXRβ full length (FL)) of 1000 to 10000 nM.

Work on CC(C)(C(=O)O)c1cccc(-c2ccc(CN(Cc3ccc(C(F)(F)F)o3)C(CF)c3cccc4ccccc34)cc2)c1 (centres unmarked) [Example 18, 2-(4′-(((2-Fluoro-1-(naphthalen-1-yl)ethyl)((5-(trifluoromethyl)furan-2-yl)methyl)amino)methyl)-[1,1′-biphenyl]-3-yl)-2-methylpropanoic acid] yielded an EC50 (LXRβ full length (FL)) of 100 to 1000 nM.

Work on Cc1cc(C)c(CN(Cc2ccc(-c3cc(F)c(CF)c(S(=O)(=O)CC(=O)O)c3)cc2)Cc2ccc(C(F)(F)F)o2)c(C)c1 [Example 20, 2-((5-Fluoro-4-(fluoromethyl)-4′-((((5-(trifluoromethyl)furan-2-yl)methyl)(2,4,6-trimethyl-benzyl)amino)methyl)-[1,1′-biphenyl]-3-yl)sulfonyl)acetic acid] yielded an EC50 [1] of 1000 to 10000 nM and an EC50 (LXRβ full length (FL)) of 100 to 1000 nM.

Cc1ccc2ccccc2c1CN(Cc1ccc(C(F)(F)F)o1)Cc1ccc(-c2cccc(S(=O)(=O)CC(=O)O)c2)c2nccn12 [Example 27, 2-((3-(5-((((2-Methylnaphthalen-1-yl)methyl)((5-(trifluoromethyl)furan-2-yl)methyl)amino)methyl)imidazo[1,2-a]pyridin-8-yl)phenyl)sulfonyl)acetic acid] was tested, and the EC50 [1] was greater than 10000 nM.
